Data taken from EP4667483A1, “HUMAN TRANSFERRIN RECEPTOR-BINDING PEPTIDE” (JCR Pharmaceuticals Co., Ltd., priority 2023, dated 2024).
pKd: −log10 of the molar value. Bridge positions count the residues as written; N and C are the ends. Square brackets hold non-standard residues; d marks the D form. Peptide text beside a SMILES is read from it. * marks the point of attachment. Trp(1-CH2COOH) = N[C@@H](Cc1cn(CC(=O)O)c2ccccc12)C(=O)O; NMePhe(4-COOH) = CN[C@@H](Cc1ccc(C(=O)O)cc1)C(=O)O; Phe(3-COOH) = N[C@@H](Cc1cccc(C(=O)O)c1)C(=O)O; NH(CH2CH2O)8Me = COCCOCCOCCOCCOCCOCCOCCOCCN*; NMePhe(3-Cl) = CN[C@@H](Cc1cccc(Cl)c1)C(=O)O; NMePhe(4-Cl) = CN[C@@H](Cc1ccc(Cl)cc1)C(=O)O; Trp(1-Me) = Cn1cc(C[C@H](N)C(=O)O)c2ccccc21; 3Pal(6-NH2) = Nc1ccc(C[C@H](N)C(=O)O)cn1; NMeY = CN[C@@H](Cc1ccc(O)cc1)C(=O)O; Nva(3-Et) = CCC(CC)[C@H](N)C(=O)O; PEG4 = NCCOCCOCCOCCOCCC(=O)O; Carboxymethyl = O=C(O)C*

Key:
Type in all cases: binding
[1] = molecular target: T1, human transferrin receptor (hTfR) (Homo sapiens, UniProt P02786); assay: SPR measurement under pH 7.4 conditions (Biacore T200, CM3 chip, hTfR captured by His Tag antibody); conditions: SPR, pH 7.4; read-out: hTfR SPR pH7.4 KD
[2] = molecular target: T1, human transferrin receptor (hTfR); assay: SPR measurement under pH 6.0 conditions (Biacore T200, NTA chip, immobilized hTfR); conditions: SPR, pH 6.0; read-out: hTfR SPR pH6.0 KD
[3] = molecular target: T1, human transferrin receptor (hTfR); assay: Evaluation of pH dependence (ratio of SPR koff or KD at pH 6.0 to pH 7.4); conditions: ratio of koff at pH 6.0 to pH 7.4
Procedure: The ratio of the calculated koff or KD values under pH 6.0 conditions to those under pH 7.4 conditions was calculated to check pH dependency.

T1 sequence (P02786 whole entry): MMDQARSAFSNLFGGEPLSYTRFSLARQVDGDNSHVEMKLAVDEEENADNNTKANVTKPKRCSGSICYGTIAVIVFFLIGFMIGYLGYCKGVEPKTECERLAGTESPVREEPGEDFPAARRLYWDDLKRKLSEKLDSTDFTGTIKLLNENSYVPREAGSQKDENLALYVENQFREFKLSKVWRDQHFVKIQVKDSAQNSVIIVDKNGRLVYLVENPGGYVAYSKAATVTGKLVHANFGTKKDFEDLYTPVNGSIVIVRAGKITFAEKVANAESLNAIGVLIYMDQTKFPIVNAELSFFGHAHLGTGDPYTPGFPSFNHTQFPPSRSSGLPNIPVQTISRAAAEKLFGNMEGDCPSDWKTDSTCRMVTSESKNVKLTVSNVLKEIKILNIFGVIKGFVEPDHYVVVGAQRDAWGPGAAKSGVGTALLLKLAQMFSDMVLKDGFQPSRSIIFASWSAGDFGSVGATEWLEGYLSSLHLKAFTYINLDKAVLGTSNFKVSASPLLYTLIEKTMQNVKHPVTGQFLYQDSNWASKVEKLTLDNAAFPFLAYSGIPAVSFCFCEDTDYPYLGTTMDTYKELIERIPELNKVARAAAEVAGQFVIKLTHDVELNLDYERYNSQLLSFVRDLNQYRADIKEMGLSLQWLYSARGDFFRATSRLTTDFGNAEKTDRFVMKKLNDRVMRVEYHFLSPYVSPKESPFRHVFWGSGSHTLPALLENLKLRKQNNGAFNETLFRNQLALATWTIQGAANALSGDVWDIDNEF

SMILES	pKd [1]	pKd [2]	dependency koff pH6.0/7.4 [3]
CCC(CC)[C@@H]1NC(=O)[C@H](Cc2ccc(OCC(=O)O)cc2)NC(=O)[C@H](Cc2ccc(O)cc2)NC(=O)[C@H](CC(N)=O)NC(=O)[C@H](Cc2cn(CC(=O)O)c3ccccc23)NC(=O)[C@H](C(C)C)NC(=O)[C@H](Cc2cccc(Cl)c2)N(C)C(=O)[C@H](C(C)C)NC(=O)[C@H](C)NC(=O)CSC[C@@H](C(=O)NCCOCCOCCOCCOCCC(N)=O)NC(=O)[C@H](Cc2ccc(O)cc2)N(C)C(=O)[C@H](Cc2cccc(C(=O)O)c2)NC(=O)[C@H](CCCNC(=N)N)NC(=O)[C@H](CCC(N)=O)NC(=O)[C@H]([C@@H](C)CC)NC1=O [compound 88] ({CH2CO}-AV[NMePhe(3-Cl)]V[Trp(1-CH2COOH)]NYY(Carboxymethyl)[Nva(3-Et)]IQR[Phe(3-COOH)][NMeY]C[PEG4]-NH2; thioether N-15)	8.16	7.29	8.60
CCC(CC)[C@@H]1NC(=O)[C@H](Cc2ccc(OCC(=O)O)cc2)NC(=O)[C@H](Cc2ccc(O)cc2)NC(=O)[C@H](CC(N)=O)NC(=O)[C@H](Cc2c[nH]c3ccccc23)NC(=O)[C@H](C(C)C)NC(=O)[C@H](Cc2cccc(Cl)c2)N(C)C(=O)[C@H](C(C)C)NC(=O)[C@H](C)NC(=O)CSC[C@@H](C(=O)NCCOCCOCCOCCOCCC(N)=O)NC(=O)[C@H](Cc2ccc(O)cc2)N(C)C(=O)[C@H](Cc2cccc(C(=O)O)c2)NC(=O)[C@H](CCCNC(=N)N)NC(=O)[C@H](CCC(N)=O)NC(=O)[C@H]([C@@H](C)CC)NC1=O [compound 75] ({CH2CO}-AV[NMePhe(3-Cl)]VWNYY(Carboxymethyl)[Nva(3-Et)]IQR[Phe(3-COOH)][NMeY]C[PEG4]-NH2; thioether N-15)	8.79	8.20	34.44
CC[C@H](C)[C@@H]1NC(=O)[C@H](Cc2ccc(OCC(=O)O)cc2)NC(=O)[C@H](Cc2ccc(O)cc2)NC(=O)[C@H](CC(N)=O)NC(=O)[C@H](Cc2cn(CCO)c3ccccc23)NC(=O)[C@H](C(C)C)NC(=O)[C@H](Cc2cccc(Cl)c2)N(C)C(=O)[C@H](C(C)C)NC(=O)[C@H](C)NC(=O)CSC[C@@H](C(=O)NCCOCCOCCOCCOCCC(N)=O)NC(=O)[C@H](Cc2ccc(O)cc2)N(C)C(=O)[C@H](Cc2cccc(C(=O)O)c2)NC(=O)[C@H](CCCNC(=N)N)NC(=O)[C@H](CCC(N)=O)NC(=O)[C@H]([C@@H](C)CC)NC1=O [compound 73]	8.73	8.32	7.54
CC[C@H](C)[C@@H]1NC(=O)[C@H](Cc2ccc(OCC(=O)O)cc2)NC(=O)[C@H](Cc2ccc(O)cc2)NC(=O)[C@H](CC(=O)NC)NC(=O)[C@H](Cc2c[nH]c3ccccc23)NC(=O)[C@H](C(C)C)NC(=O)[C@H](Cc2cccc(Cl)c2)N(C)C(=O)[C@H](C(C)C)NC(=O)[C@H](C)NC(=O)CSC[C@@H](C(=O)NCCOCCOCCOCCOCCC(N)=O)NC(=O)[C@H](Cc2ccc(O)cc2)N(C)C(=O)[C@H](Cc2cccc(C(=O)O)c2)NC(=O)[C@H](CCCNC(=N)N)NC(=O)[C@H](CCC(N)=O)NC(=O)[C@H]([C@@H](C)CC)NC1=O [compound 74] ({CH2CO}-AV[NMePhe(3-Cl)]VWD(NHMe)YY(Carboxymethyl)IIQR[Phe(3-COOH)][NMeY]C[PEG4]-NH2; thioether N-15)	7.34	7.12	3.53
CC[C@H](C)[C@@H]1NC(=O)[C@H](Cc2ccc(OCC(=O)O)cc2)NC(=O)[C@H](Cc2ccc(O)cc2)NC(=O)[C@H](CC(N)=O)NC(=O)[C@H](Cc2c[nH]c3ccccc23)NC(=O)[C@H](C(C)C)NC(=O)[C@H](Cc2cccc(Cl)c2)N(C)C(=O)[C@H](C(C)C)NC(=O)[C@H](C)NC(=O)CSC[C@@H](C(=O)NCCOCCOCCOCCOCCC(N)=O)NC(=O)[C@H](Cc2ccc(O)cc2)N(C)C(=O)[C@H](Cc2cccc(C(=O)O)c2)NC(=O)[C@H](CCCNC(=N)N)NC(=O)[C@H](CCC(N)=O)NC(=O)[C@H]([C@@H](C)CC)NC1=O [compound 72] ({CH2CO}-AV[NMePhe(3-Cl)]VWNYY(Carboxymethyl)IIQR[Phe(3-COOH)][NMeY]C[PEG4]-NH2; thioether N-15)	8.48		5.72
CCC(CC)[C@@H]1NC(=O)[C@H](Cc2ccc(OCC(=O)O)cc2)NC(=O)[C@H](Cc2ccc(O)cc2)NC(=O)[C@H](CC(N)=O)NC(=O)[C@H](Cc2cn(CC(=O)O)c3ccccc23)NC(=O)[C@H](C(C)C)NC(=O)[C@H](Cc2cccc(Cl)c2)N(C)C(=O)[C@H](C(C)C)NC(=O)[C@H](C)NC(=O)CSC[C@@H](C(=O)NCCOCCOCCOCCOCCC(N)=O)NC(=O)[C@H](Cc2ccc(Cl)cc2)N(C)C(=O)[C@H](Cc2cccc(C(=O)O)c2)NC(=O)[C@H](CCCNC(=N)N)NC(=O)[C@H](CCC(N)=O)NC(=O)[C@H]([C@@H](C)CC)NC1=O [compound 92] ({CH2CO}-AV[NMePhe(3-Cl)]V[Trp(1-CH2COOH)]NYY(Carboxymethyl)[Nva(3-Et)]IQR[Phe(3-COOH)][NMePhe(4-Cl)]C[PEG4]-NH2; thioether N-15)	7.86	7.36	5.47
CCC(CC)[C@@H]1NC(=O)[C@H](Cc2ccc(OCC(=O)O)cc2)NC(=O)[C@H](Cc2ccc(N)nc2)NC(=O)[C@H](CC(N)=O)NC(=O)[C@H](Cc2c[nH]c3ccccc23)NC(=O)[C@H](C(C)C)NC(=O)[C@H](Cc2cccc(Cl)c2)N(C)C(=O)[C@H](C(C)C)NC(=O)[C@H](C)NC(=O)CSC[C@@H](C(=O)NCCOCCOCCOCCOCCC(N)=O)NC(=O)[C@H](Cc2ccc(O)cc2)N(C)C(=O)[C@H](Cc2cccc(C(=O)O)c2)NC(=O)[C@H](CCCNC(=N)N)NC(=O)[C@H](CCC(=O)NCCOCCOCCOCCOCCOCCOCCOCCOC)NC(=O)[C@H]([C@@H](C)CC)NC1=O [compound 82] ({CH2CO}-AV[NMePhe(3-Cl)]VWN[3Pal(6-NH2)]Y(Carboxymethyl)[Nva(3-Et)]IE(NH(CH2CH2O)8Me)R[Phe(3-COOH)][NMeY]C[PEG4]-NH2; thioether N-15)	7.57	6.60	20.39
CC[C@H](C)[C@@H]1NC(=O)[C@H](Cc2ccc(OCC(=O)O)cc2)NC(=O)[C@H](Cc2ccc(O)cc2)NC(=O)[C@H](CC(N)=O)NC(=O)[C@H](Cc2cn(C)c3ccccc23)NC(=O)[C@H](C(C)C)NC(=O)[C@H](Cc2cccc(Cl)c2)N(C)C(=O)[C@H](C(C)C)NC(=O)[C@H](C)NC(=O)CSC[C@@H](C(=O)NCCOCCOCCOCCOCCC(N)=O)NC(=O)[C@H](Cc2ccc(O)cc2)N(C)C(=O)[C@H](Cc2cccc(C(=O)O)c2)NC(=O)[C@H](CCCNC(=N)N)NC(=O)[C@H](CCC(N)=O)NC(=O)[C@H]([C@@H](C)CC)NC1=O [compound 79] ({CH2CO}-AV[NMePhe(3-Cl)]V[Trp(1-Me)]NYY(Carboxymethyl)IIQR[Phe(3-COOH)][NMeY]C[PEG4]-NH2; thioether N-15)			5.31
CC[C@H](C)[C@@H]1NC(=O)[C@H](Cc2ccc(OC)cc2)NC(=O)[C@H](Cc2ccc(O)cc2)NC(=O)[C@H](CC(N)=O)NC(=O)[C@H](Cc2c[nH]c3ccccc23)NC(=O)[C@H](C(C)C)NC(=O)[C@H](Cc2cccc(Cl)c2)N(C)C(=O)[C@H](C(C)C)NC(=O)[C@H](C)NC(=O)CSC[C@@H](C(=O)NCCOCCOCCOCCOCCC(N)=O)NC(=O)[C@H](Cc2ccc(C(=O)O)cc2)N(C)C(=O)[C@H](Cc2cccc(C(=O)O)c2)NC(=O)[C@H](CCCNC(=N)N)NC(=O)[C@H](CCC(N)=O)NC(=O)[C@H]([C@@H](C)CC)NC1=O [compound 80] ({CH2CO}-AV[NMePhe(3-Cl)]VWNYY(Me)IIQR[Phe(3-COOH)][NMePhe(4-COOH)]C[PEG4]-NH2; thioether N-15)			22.20
